Results: paper PMC6718988, “Bioactivity and Bactericidal Mechanism of Histidine-Rich β-Hairpin Peptide Against Gram-Negative Bacteria” (International Journal of Molecular Sciences, 2019)
≈ marks a conversion by molar mass, not a printed value. Where a SMILES comes first, the peptide text is derived from it. [ ]: non-standard residue; d: D form.

Key:
[1] = RP-HPLC retention time as measure of hydrophobicity; type: physicochemical; conditions: analytical Kromasil C18 column 4.6 mm × 250 mm, 5.0 μm, acetonitrile, flow 1.0 mL/min, used as measure of hydrophobicity
Procedure: The hydrophobicities of the peptides in solution were reliably mirrored by their high-performance liquid chromatography (HPLC)retention times. The retention times for peptide HI2, HW2, HV2, HF2, and PG-1 were 11.13, 10.55, 12.20, 18.06 and 12.56 min, respectively, indicating the following hydrophobic order: HF2 > PG-1 > HV2 > HI2 > HW2(Table 1).
The designed peptides were synthesized and purified by GL Biochem (Shanghai, China). Acetonitrile was used on an analytical Kromasil C18 column (4.6 mm × 250 mm, 5.0 μm, LC 3000, Beijing, China), and the purity of the peptides was determined to be greater than 95% via reversed-phase high-performance liquid chromatography (RP-HPLC) with a flow rate of 1.0 mL/min. The experimental molecular weights of the peptides were evaluated via ESI-MS analysis, and these values were very close to the calculated masses. Next, the peptides were dissolved in deionized water at a concentration of 2.56 mM, and the peptide solutions were stored at −20 °C.

E. coli ATCC25922 = assay: microbe, parasite or virus in culture; conditions: ATCC25922, 24 h
Procedure: (§1) The minimum inhibitory concentration (MIC) was measured using a broth microdilution method to determine the in vitro antimicrobial activity of the peptides. Bacteria were inoculated into MHB and incubated overnight at 37 °C until the bacteria were in log phase growth. Next, we corrected the bacterial concentration to approximately 1 × 10^5 CFU/mL using MHB. The peptides were added to 96-well plates containing 0.01% acetic acid and 0.2% bovine serum albumin at final concentrations ranging from 0.25 to 128 μM. After incubation at 37 °C for 24 h, the absorbance was measured at 492 nm using a microplate reader (Tecan GENios F129004, Tecan, Austria). Broth containing microbes and […] were used as positive and negative controls, respectively. The lowest peptide concentration with no increase in absorbance compared to that of the negative control was defined as the MIC. The experiments were independently performed three times.

E. coli K88 = assay: microbe, parasite or virus in culture; conditions: E. coli K88; MHB, about 1 × 10^5 CFU/mL, 37 °C, 24 h; three independent experiments
Procedure: as §1

E. coli K99 = assay: microbe, parasite or virus in culture; conditions: E. coli K99; MHB, about 1 × 10^5 CFU/mL, 37 °C, 24 h; three independent experiments
Procedure: as §1

E. coli UB1005 = assay: microbe, parasite or virus in culture; conditions: UB1005, 24 h
Procedure: as §1

P. aeruginosa ATCC27853 = assay: microbe, parasite or virus in culture; conditions: ATCC27853, 24 h
Procedure: as §1

S. aureus ATCC29213 = assay: microbe, parasite or virus in culture; conditions: ATCC29213, 24 h
Procedure: as §1

S. epidermidis ATCC12228 = assay: microbe, parasite or virus in culture; conditions: ATCC12228, 24 h
Procedure: as §1

S. pullorum C7913 = assay: microbe, parasite or virus in culture; conditions: C7913, 24 h
Procedure: as §1

[2] = test system: methicillin-resistant S. aureus ATCC43300; assay: microbe, parasite or virus in culture; conditions: ATCC43300, 24 h
Procedure: as §1

Gram-negative bacteria = assay: MICs against Gram-negative strains (geometric mean, range); type: cell-based
Procedure: as §1

[3] = test system: Gram-positive and Gram-negative bacteria; conditions: 24 h
Procedure, shortened: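 Broth microdilution in MHB with log-phase bacteria adjusted to about 1 × 10^5 CFU/mL; peptides tested at 0.25 to 128 μM in 0.01% acetic acid and 0.2% BSA.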

Compound: CC(C)[C@H](NC(=O)CNC(=O)[C@H]1CCCN1C(=O)[C@@H](NC(=O)[C@H](Cc1c[nH]cn1)NC(=O)[C@@H](NC(=O)[C@H](Cc1c[nH]cn1)NC(=O)[C@@H](NC(=O)[C@H](CCCNC(=N)N)NC(=O)[C@@H](N)CCCNC(=N)N)C(C)C)C(C)C)C(C)C)C(=O)N[C@@H](Cc1c[nH]cn1)C(=O)N[C@H](C(=O)N[C@@H](Cc1c[nH]cn1)C(=O)N[C@H](C(=O)N[C@@H](CCCNC(=N)N)C(=O)N[C@@H](CCCNC(=N)N)C(N)=O)C(C)C)C(C)C [HV2] (H-RRVHVHV[dP]GVHVHVRR-NH2; N-terminus assumed)
- Retention Time [1]: 12.20 min
- MIC (E. coli ATCC25922): 8 µM (≈ 15.5 µg/mL)
- MIC (E. coli K88): 4 µM (≈ 7.76 µg/mL)
- MIC (E. coli K99): 8 µM (≈ 15.5 µg/mL)
- MIC (E. coli UB1005): 8 µM (≈ 15.5 µg/mL)
- MIC (P. aeruginosa ATCC27853): 8 µM (≈ 15.5 µg/mL)
- MIC (S. aureus ATCC29213): >128 µM
- MIC (S. epidermidis ATCC12228): >128 µM
- MIC (S. pullorum C7913): 8 µM (≈ 15.5 µg/mL)
- MIC [2]: >128 µM
- MBC (GM), geometric mean of MICs, Gram (−) (Gram-negative bacteria; Gram-negative strains, 256 μM used where no activity at 128 μM): 7.13 µM
- MIC against Gram-negative bacteria (Gram-negative bacteria; range over the Gram-negative strains of Table 2): 4 to 8 µM
- MBC (GM), geometric mean of MICs, Gram (+,−) [3]: 23.52 µM
